Test results as given in PubChem BioAssay (NCI).
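Values below derive from 48-hour exposures of cells grown in 96-well plates, with endpoints linearly interpolated between the two concentrations bracketing the appropriate inhibition level. TGI: total growth inhibition.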

Assays:
Test in all cases: DTP human tumour cell line panel, 48 h
[1] = tested on: OVCAR-3 ovarian
[2] = tested on: MDA-N
[3] = tested on: MOLT-4 leukemia
[4] = tested on: OVCAR-4 ovarian
[5] = tested on: HT29 colon
[6] = tested on: LOX IMVI melanoma
[7] = tested on: SF-268 CNS
[8] = tested on: EKVX NSCLC
[9] = tested on: KM12 colon
[10] = tested on: SNB-19 CNS
[11] = tested on: NCI-H522 lung
[12] = tested on: U251 CNS
[13] = tested on: A498 renal
[14] = tested on: SR leukemia
[15] = tested on: SK-OV-3 ovarian
[16] = tested on: IGROV1 ovarian
[17] = tested on: HCC-2998 colon
[18] = tested on: RPMI-8226 leukemia
[19] = tested on: ACHN renal
[20] = tested on: RXF 393 renal
[21] = tested on: MDA-MB-231 breast
[22] = tested on: MDA-MB-435
[23] = tested on: UACC-62 melanoma
[24] = tested on: COLO 205 colon
[25] = tested on: NCI-H226 lung
[26] = tested on: MALME-3M melanoma
[27] = tested on: SW-620 colon
[28] = tested on: HCT-116 colon
[29] = tested on: HOP-92 NSCLC
[30] = tested on: HS 578T breast
[31] = tested on: SNB-75 CNS
[32] = tested on: OVCAR-5 ovarian
[33] = tested on: TK-10 renal
[34] = tested on: BT-549 breast
[35] = tested on: SK-MEL-28 melanoma
[36] = tested on: UO-31 renal
[37] = tested on: T-47D breast
[38] = tested on: K-562 leukemia
[39] = tested on: SF-539 CNS
[40] = tested on: HL-60(TB) leukemia
[41] = tested on: DU-145 prostate
[42] = tested on: NCI-H23 lung
[43] = tested on: HOP-62 NSCLC
[44] = tested on: SN12C renal
[45] = tested on: SK-MEL-5 melanoma
[46] = tested on: SK-MEL-2 melanoma
[47] = tested on: OVCAR-8 ovarian
[48] = tested on: CAKI-1 renal
[49] = tested on: CCRF-CEM leukemia
[50] = tested on: 786-0 renal
[51] = tested on: HCT-15 colon
[52] = tested on: A549 NSCLC
[53] = tested on: PC-3 prostate
[54] = tested on: MCF7 breast
[55] = tested on: UACC-257 melanoma
[56] = tested on: M14 melanoma
[57] = tested on: NCI/ADR-RES ovarian
[58] = tested on: SF-295 CNS
[59] = tested on: NCI-H460 lung
[60] = tested on: DMS 114 small cell lung
[61] = tested on: DMS 273 small cell lung
[62] = tested on: M19-MEL melanoma
[63] = tested on: KM20L2 colon
[64] = tested on: SNB-78 CNS
[65] = tested on: LXFL 529 NSCLC
[66] = tested on: DLD-1 colon

Compound: NC1(c2cc3ccccc3s2)CCCC1
- TGI [1]: > 100 µM
- TGI [2]: > 100 µM
- TGI [3]: 47.3 µM
- TGI [4]: > 100 µM
- TGI [5]: > 100 µM
- TGI [6]: > 100 µM
- TGI [7]: > 100 µM
- TGI [8]: > 100 µM
- TGI [9]: > 100 µM
- TGI [10]: > 100 µM
- TGI [11]: > 100 µM
- TGI [12]: > 100 µM
- TGI [13]: > 100 µM
- TGI [14]: 44.2 µM
- TGI [15]: > 100 µM
- TGI [16]: > 100 µM
- TGI [17]: 46.1 µM
- TGI [18]: 34.4 µM
- TGI [19]: > 100 µM
- TGI [20]: > 100 µM
- TGI [21]: > 100 µM
- TGI [22]: > 100 µM
- TGI [23]: > 100 µM
- TGI [24]: 43.1 µM
- TGI [25]: > 100 µM
- TGI [26]: > 100 µM
- TGI [27]: > 100 µM
- TGI [28]: > 100 µM
- TGI [29]: > 100 µM
- TGI [30]: > 100 µM
- TGI [31]: > 100 µM
- TGI [32]: > 100 µM
- TGI [33]: 85.7 µM
- TGI [34]: > 100 µM
- TGI [35]: 48.1 µM
- TGI [36]: > 100 µM
- TGI [37]: > 100 µM
- TGI [38]: 63 µM
- TGI [39]: 45.3 µM
- TGI [40]: > 100 µM
- TGI [41]: > 100 µM
- TGI [42]: > 100 µM
- TGI [43]: > 100 µM
- TGI [44]: > 100 µM
- TGI [45]: 68.2 µM
- TGI [46]: > 100 µM
- TGI [47]: > 100 µM
- TGI [48]: > 100 µM
- TGI [49]: 42.3 µM
- TGI [50]: > 100 µM
- TGI [51]: > 100 µM
- TGI [52]: > 100 µM
- TGI [53]: 81.4 µM
- TGI [54]: > 100 µM
- TGI [55]: 81.2 µM
- TGI [56]: 56.2 µM
- TGI [57]: > 100 µM
- TGI [58]: > 100 µM
- TGI [59]: > 100 µM

Compound: Cc1ccc(NC(=O)c2ccc(OP(=O)(O)Nc3ccc(C)cc3)cc2)cc1
- TGI [1]: > 100 µM
- TGI [2]: > 100 µM
- TGI [3]: > 100 µM
- TGI [4]: > 100 µM
- TGI [5]: > 100 µM
- TGI [6]: > 100 µM
- TGI [7]: > 100 µM
- TGI [8]: > 100 µM
- TGI [9]: > 100 µM
- TGI [10]: > 100 µM
- TGI [11]: > 100 µM
- TGI [12]: > 100 µM
- TGI [13]: > 100 µM
- TGI [14]: > 100 µM
- TGI [15]: > 100 µM
- TGI [16]: > 100 µM
- TGI [17]: > 100 µM
- TGI [18]: > 100 µM
- TGI [19]: > 100 µM
- TGI [20]: > 100 µM
- TGI [21]: > 100 µM
- TGI [22]: > 100 µM
- TGI [23]: > 100 µM
- TGI [24]: > 100 µM
- TGI [25]: > 100 µM
- TGI [26]: > 100 µM
- TGI [27]: > 100 µM
- TGI [28]: > 100 µM
- TGI [29]: > 100 µM
- TGI [30]: > 100 µM
- TGI [31]: > 100 µM
- TGI [32]: > 100 µM
- TGI [33]: > 100 µM
- TGI [34]: > 100 µM
- TGI [35]: > 100 µM
- TGI [36]: > 100 µM
- TGI [37]: > 100 µM
- TGI [38]: > 100 µM
- TGI [39]: > 100 µM
- TGI [40]: > 100 µM
- TGI [41]: > 100 µM
- TGI [42]: > 100 µM
- TGI [43]: > 100 µM
- TGI [44]: > 100 µM
- TGI [45]: > 100 µM
- TGI [46]: > 100 µM
- TGI [47]: > 100 µM
- TGI [48]: > 100 µM
- TGI [49]: > 100 µM
- TGI [50]: > 100 µM
- TGI [51]: > 100 µM
- TGI [52]: > 100 µM
- TGI [53]: > 100 µM
- TGI [54]: > 100 µM
- TGI [55]: > 100 µM
- TGI [56]: > 100 µM
- TGI [57]: > 100 µM
- TGI [58]: > 100 µM
- TGI [59]: > 100 µM

Compound: CCOC(=O)C1=C(C(=O)OCC)C2c3ccccc3C=CN2C(C(=O)OCC)=C(SC)S1 (centres undefined)
- TGI [60]: > 100 µM
- TGI [1]: > 100 µM
- TGI [61]: > 100 µM
- TGI [3]: > 100 µM
- TGI [5]: > 100 µM
- TGI [6]: > 100 µM
- TGI [7]: > 100 µM
- TGI [8]: > 100 µM
- TGI [62]: > 100 µM
- TGI [10]: > 100 µM
- TGI [11]: > 100 µM
- TGI [12]: > 100 µM
- TGI [63]: > 100 µM
- TGI [14]: > 100 µM
- TGI [15]: > 100 µM
- TGI [16]: > 100 µM
- TGI [17]: > 100 µM
- TGI [64]: > 100 µM
- TGI [18]: > 100 µM
- TGI [19]: > 100 µM
- TGI [20]: > 100 µM
- TGI [23]: > 100 µM
- TGI [24]: > 100 µM
- TGI [25]: > 100 µM
- TGI [65]: > 100 µM
- TGI [26]: > 100 µM
- TGI [27]: > 100 µM
- TGI [28]: > 100 µM
- TGI [31]: > 100 µM
- TGI [32]: > 100 µM
- TGI [33]: > 100 µM
- TGI [35]: > 100 µM
- TGI [36]: > 100 µM
- TGI [38]: > 100 µM
- TGI [39]: > 100 µM
- TGI [40]: > 100 µM
- TGI [42]: > 100 µM
- TGI [66]: > 100 µM
- TGI [43]: > 100 µM
- TGI [44]: > 100 µM
- TGI [45]: > 100 µM
- TGI [46]: > 100 µM
- TGI [47]: > 100 µM
- TGI [48]: > 100 µM
- TGI [49]: > 100 µM
- TGI [50]: > 100 µM
- TGI [51]: > 100 µM
- TGI [52]: > 100 µM
- TGI [55]: > 100 µM
- TGI [56]: > 100 µM
- TGI [58]: > 100 µM
- TGI [59]: > 100 µM

Compound: CCCCCC1=CC(=O)C1(Cl)Cl
- TGI [1]: 27 µM
- TGI [2]: 28.3 µM
- TGI [3]: 15.3 µM
- TGI [4]: 38.1 µM
- TGI [5]: 36.7 µM
- TGI [6]: 21.2 µM
- TGI [7]: 55.5 µM
- TGI [8]: 49.6 µM
- TGI [9]: 27.9 µM
- TGI [10]: > 67.3 µM
- TGI [11]: 15.8 µM
- TGI [12]: 25.1 µM
- TGI [13]: 43.3 µM
- TGI [14]: 19.4 µM
- TGI [15]: 85.4 µM
- TGI [16]: 48 µM
- TGI [17]: 27.7 µM
- TGI [18]: 7.87 µM
- TGI [19]: 23.4 µM
- TGI [20]: 35.3 µM
- TGI [21]: 31 µM
- TGI [22]: 33 µM
- TGI [23]: 32.2 µM
- TGI [24]: 26.7 µM
- TGI [25]: 41.5 µM
- TGI [26]: 27.4 µM
- TGI [27]: 40.5 µM
- TGI [28]: 28.4 µM
- TGI [29]: 63.3 µM
- TGI [30]: > 81.3 µM
- TGI [31]: 30.4 µM
- TGI [32]: 29.5 µM
- TGI [33]: 20.8 µM
- TGI [34]: 56.8 µM
- TGI [35]: 36.8 µM
- TGI [36]: 38.2 µM
- TGI [37]: > 52.2 µM
- TGI [38]: 19.8 µM
- TGI [39]: 38.9 µM
- TGI [40]: 4.06 µM
- TGI [41]: 26.1 µM
- TGI [42]: 49.7 µM
- TGI [43]: 48.8 µM
- TGI [44]: 72 µM
- TGI [45]: 24 µM
- TGI [46]: 47.7 µM
- TGI [47]: 34 µM
- TGI [48]: 23.3 µM
- TGI [49]: 6.15 µM
- TGI [50]: 35.8 µM
- TGI [51]: 32.4 µM
- TGI [52]: 71.5 µM
- TGI [53]: 42.1 µM
- TGI [54]: 31.6 µM
- TGI [55]: 33.3 µM
- TGI [56]: 45.6 µM
- TGI [57]: 86.6 µM
- TGI [58]: 62.1 µM
- TGI [59]: > 61.2 µM
